In US5648474A, “Crystalline etoposide 4'-phosphate diethanolate” (Bristol-Myers Squibb, priority 1991, dated 1997):
“And” between values parts separate entries of the source, which are not always exact repeats. Equal values may be shown once.

Experiments:
[1] = Stability at 50° C., potency by HPLC (% EP remaining); type: physicochemical; settings: for % EP remaining, 2 wk / % EP remaining, 4 wk / % EP remaining, 8 wk: sealed glass vials, control: desiccated at 4° C. (100% assumed potency); for % EP remaining, 2 wk: 20160 min; for % EP remaining, 4 wk: 40320 min; for % EP remaining, 8 wk: 80640 min
Protocol: a. Crystalline etoposide 4'-phosphate diethanolate prepared as described above. b. Crystalline etoposide 4'-phosphate (unsolvated) was prepared by the following procedure. Etoposide 4'-phosphate (300 mg) in ethanol (175 ml) was heated with stirring at 70° C. to obtain a clear solution. The solution was filtered and the filtrate heated at 70° C. until the volume was reduced to ca. 34 ml. A portion of the solution (ca. 17 ml) was placed in a vial, and seeded with a small amount of needle-shaped etoposide 4'-phosphate crystals previously obtained. The solution was placed in freezer at -12° C. for 4 days and the resulting needle-shaped crystals were harvested as white fluffy material. NMR analysis of this material indicated ethanol content of ca. 1.6% w/w. […]
c. amorphous disodium etoposide 4'-phosphate prepared as described in U.S. Pat. No. 4,904,768. d. amorphous etoposide 4'-phosphate was obtained by dissolving crystalline etoposide 4'-phosphate diethanolate (125 mg) in methanol (50 ml), evaporating the solution to dryness on a rotary evaporator, and drying the residue at 25° C. under vacuum for 1 hour.
Accurately weighed samples of the test materials were placed in Type I flint glass vials and sealed with Teflon-coated stoppers and aluminum caps. The vials were stored at 50° C. The potency of these samples was determined at 2,4 and 8 weeks by HPLC. Samples stored desiccated at 4° C. served as controls (100% assumed potency).
Column: Jones Apex Octadecyl, 5μ, 150×4.6 mm
Mobile phase A: 0.02M ammonium phosphate (mono-basic) in Milli-Q water (pH ~4.5): Acetonitrile (85:15) Mobile phase B: Acetonitrile
Gradient: 0-3 minutes isocratic at 0% B; 3-18 mins--linear gradient 0 to 30% B; 18-23 mins--isocratic at 30% B; 23-25 mins--linear gradient 30 to 0% B; 25-30 mins--re-equilibrate at 100% A (i.e. 0% B) […]
Sample diluent: Mobile phase A
Inj. volume: 20 microliters
Retention times: Etoposide 4'-phosphate--5.4 mins; lignan P--11.5 mins; etoposide--17.5 mins Peak area for etoposide 4'-phosphate was linearly correlated with concentration in the range 0.05-0.20 mg/mL (correlation coefficient=0.9999).
The results of the above-described stability test are given in the following Table in which the term "EP" represents etoposide 4'-phosphate.

[2] = cited from earlier work
[3] = relative to etoposide; cited from earlier work
[4] = previously disclosed fluffy, amorphous forms; cited from earlier work

SMILES	% EP remaining, 2 wk [1] [%]	% EP remaining, 4 wk [1]	% EP remaining, 8 wk [1]	water solubility [2]	stability versus other forms of etoposide 4'-phosphate [1]	loss of potency over a 8-week period ([1]; 8-week period)	activity in in vivo antitumor assays [3]	decomposition upon storage [4]
COc1cc([C@@H]2c3cc4c(cc3[C@@H](O[C@@H]3O[C@@H]5CO[C@@H](C)O[C@H]5[C@H](O)[C@H]3O)[C@H]3COC(=O)[C@H]23)OCO4)cc(OC)c1OP(=O)(O)O [Amorphous EP 2Na, disodium etoposide 4'-phosphate]	85.5	69.3%	61.6%	≥ 100 mg/mL				
COc1cc([C@@H]2c3cc4c(cc3[C@@H](O[C@@H]3O[C@@H]5CO[C@@H](C)O[C@H]5[C@H](O)[C@H]3O)[C@H]3COC(=O)[C@H]23)OCO4)cc(OC)c1OP(=O)(O)O [Amorphous EP, etoposide 4'-phosphate]	65.8	54.1%	46.7%					
COc1cc([C@@H]2c3cc4c(cc3[C@@H](O[C@@H]3O[C@@H]5CO[C@@H](C)O[C@H]5[C@H](O)[C@H]3O)[C@H]3COC(=O)[C@H]23)OCO4)cc(OC)c1OP(=O)(O)O [Crystalline EP 2EtOH, etoposide 4'-phosphate diethanolate]	100	98.4% and 100%	97.5% and 99.3%		superior stability	very little loss of potency		
COc1cc([C@@H]2c3cc4c(cc3[C@@H](O[C@@H]3O[C@@H]5CO[C@@H](C)O[C@H]5[C@H](O)[C@H]3O)[C@H]3COC(=O)[C@H]23)OCO4)cc(OC)c1OP(=O)(O)O [Crystalline EP, etoposide 4'-phosphate]	93.3	87.9%	85.1%					
COc1cc([C@@H]2c3cc4c(cc3[C@@H](O[C@@H]3O[C@@H]5CO[C@@H](C)O[C@H]5[C@H](O)[C@H]3O)[C@H]3COC(=O)[C@H]23)OCO4)cc(OC)c1OP(=O)(O)O [Etoposide 4'-phosphate (I), Etoposide 4'-phosphate]				≥ 100 mg/mL			as active as etoposide	tend to decompose upon storage
COc1cc([C@@H]2c3cc4c(cc3[C@@H](O[C@@H]3O[C@@H]5CO[C@@H](C)O[C@H]5[C@H](O)[C@H]3O)[C@H]3COC(=O)[C@H]23)OCO4)cc(OC)c1O [Etoposide]				about 0.1 mg/ml				
